From patent US6451288B1, “Method of treating lung diseases with uridine 5′-diphosphate and analogs thereof” (The University of North Carolina at Chapel Hill, priority 1997, dated 2002)
Blank lines part the entries; values can stand above or below the compound they belong to.

Legend:
[1] = tested on: human nasal epithelial cells; assay: Cytosolic Ca2+ measurement (Fura-2) in human nasal epithelial cells; assay type: cell-based
Protocol: (§1) Human nasal epithelial cells were harvested from turbinates using protease XIV (Sigma, St. Louis, Mo.) for 24-48 h at 4° C., as previously described. R. Wu, et al., Am. Rev. Respir. Dis. 132, 311-320 (1985). Cytosolic Ca^2+ and inositol phosphate measurements were made on nasal cell monolayers plated on porous Transwell Col filters (pore diameter 0.45 μm; Costar, Cambridge, Mass.) and maintained in Ham's F12 media supplemented with 10 ng/mL epidermal growth factor, 3.75 ng/mL endothelial cell growth factor, 500 ng/mL hydrocortisone, 5 ng/mL insulin, and 1 mM CaCl2 (Ham's F12+4X medium). Assays were carried out 7 to 10 days after seeding, a time coincident with the development of the maximal transepithelial potential difference according to N. Nakahata & T. K. Harden, Biochem. J. 241, 337-344 (1987).
(§2) Nasal cells grown on Transwell Col filters affixed to O-rings were maintained in F12+4X medium and studied 7-10 days after cell plating as described above. For Ca^2+i measurements, cells were loaded with Fura-2 and mounted in a miniature Ussing chamber over an objective of a microscope (Zeiss) coupled to a microfluorimeter, and cytosolic Ca^2+i levels were quantitated as previously described in Paradiso et al., supra. The fluorescence intensity ratio (excitation 340/380; emission λ 450 nm) was collected from a field of 30-40 nasal cells on monolayers and converted to Ca^2+ as previously described in E. H. Larsen et al, J. Physiol. 424, 109-131 (1990). For simultaneous measurements of Cl^− secretion, the transepithelial potential difference (TEP) was measured by a Voltage-Clamp/Pulse Generator (Model VCC600, Physiologic Instruments, San Diego, Calif.) and recorded on a two-channel recorder (Linsesis Model L200S). To calculate changes in Cl^− secretory current (ΔICl^−), a defined 1 sec current pulse was delivered across the monolayer every 10 sec. The nasal tissue was converted from its native Na^+ absorptive state to a Cl^− secretory state by exposing monolayers to a luminal medium containing 0 Na^+/low Cl^− and to a basolateral medium of Krebs bicarbonate Ringer solution.

human P2Y6 receptor = target: T1, human P2Y6 receptor (Homo sapiens, UniProt Q15077); assay: Inositol phosphate accumulation in 1321N1 astrocytoma cells overexpressing the human P2Y6 receptor; assay type: cell-based; settings: 60 min, hexokinase/glucose present
T1 construct: expressed in transfected cells
T1 sequence (Q15077 whole entry): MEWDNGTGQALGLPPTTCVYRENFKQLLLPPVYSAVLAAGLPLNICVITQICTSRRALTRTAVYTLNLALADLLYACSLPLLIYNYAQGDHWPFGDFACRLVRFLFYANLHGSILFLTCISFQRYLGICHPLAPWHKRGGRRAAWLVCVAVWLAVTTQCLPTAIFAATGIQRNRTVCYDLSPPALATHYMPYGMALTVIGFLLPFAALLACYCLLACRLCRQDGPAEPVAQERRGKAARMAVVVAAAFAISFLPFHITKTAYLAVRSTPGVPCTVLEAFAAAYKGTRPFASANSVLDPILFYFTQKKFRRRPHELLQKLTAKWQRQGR
Protocol: The following method was used for measuring inositol phosphate accumulation of the UDP analogs described within this example as drugs. 1321N1 astrocytoma cells, stably overexpressing the human P2Y6 receptor (Nicholas, et al., Mol. Pharmacol. 50, 224-229 (1996)), were seeded into 96 well plates (7500 cells/well) in DMEM-H supplemented with 10% FCS. After 48 hours, the growth media was replaced with inositol-free DMEM-H supplemented with 2.5% dialyzed FCS and [^3H]-inositol (0.2 uCi/well) to radiolabel hormone-responsive inositol phospholipid pools. Cells were stimulated 48 hours later. At the time of assay, the culture media was supplemented with 25 mM HEPES (pH 7.4) and 10 mM […] to prevent hydrolysis of [^3H]-inositol phosphates. In addition, hexokinase (0.03 U/well) and glucose (50 mM final concentration) was added to the cultures to provide an enzymatic mechanism for the depletion of nucleoside triphosphates contaminating drug solutions or released from cells prior to/or during cell stimulation reactions. Drugs were diluted in phosphate buffered saline containing hexokinase/glucose and incubated at 37° for 30 minutes prior to addition to cells. Reactions were terminated after 60 minutes by rapid aspiration of media followed by the addition of ice cold EDTA (1.0 mM) and incubation on ice for at least 15 minutes prior to resolution of [^3H]-inositol phosphates by ion exchange chromatography as described (Brown, et. al., supra).

[2] = tested on: human nasal epithelial cells; assay: [3H]inositol phosphate formation in polarized human nasal epithelial cells; assay type: cell-based; settings: Homo sapiens, Epithelial cell, 10 min; added to mucosal medium, 10 min; read-out: EC50 for stimulating inositol phosphate formation
Protocol: as §1
Confluent human nasal epithelial cells as described in Example 1 were labeled for 18 h in inositol-free DMEM containing 4.5g/L glucose and 5 μCi/mL of [^3H]myo-inositol. These cells were pre-incubated with 10 mM LiCl and challenged with agonists for an additional 10 min. No changes of medium were made subsequent to addition of [^3H]myo-inositol to avoid release of endogenous ATP from stressed cells. E. R. Lazarowski et al., Br. J Pharmacol. 116, 1619-1627 (1995). Incubations were terminated by addition of 5% ice-cold trichloroacetic acid and the resultant [^3H]inositol phosphates were separated on Dowex AG1-X8 columns as described in A. M. Paradiso et al., Nature 377, 643-646 (1995).

[3] = tested on: human nasal epithelial cells; assay: Cl- secretion (transepithelial potential difference, Ussing chamber) in human nasal epithelial cells; assay type: cell-based
Protocol: as §1, §2

[4] = tested on: human nasal epithelial cells; assay: Hydrolysis of [3H]UTP and [3H]UDP on human nasal epithelial cell surfaces; assay type: in vitro ADME; settings: for Nucleotide Hydrolysis MUCOSAL / Nucleotide Hydrolysis SEROSAL: 20 min incubation period, mean ± range of two experiments; for Nucleotide Hydrolysis SEROSAL: serosal surface
Protocol: (§3) Nasal monolayers were grown to confluence on 6.5 mm Transwells (Costar) as indicated above. The cells were washed twice and preincubated with 300 μl HEPES-buffered (pH, 7.4) DMEM medium for at least one hour prior to the addition of the [^3H]-nucleotides to ensure that any endogeneously released ATP was degraded. Incubations were initiated by addition of 2 μM [^3H]UTP or [^3H]UDP (0.5 μCi each) to either cell surface. Incubations were terminated at the indicated times by transferring the medium to a tube containing 30 μl 50 mM EDTA and boiled for 2 min. Nucleotides were separated by HPLC (Shimadzu Scientific Instruments, Inc., Columbia, Md.) via a strong anion exchange column (Rainin Instrument Co., Emeryville, Calif.) using a two solvent system consisting of buffer A (45 mM ammonium formate, pH 4.6) and buffer B (250 mM sodium phosphate, pH 2.7). A linear gradient was developed from 100% buffer A to 100% B during the first 25 min. The column then was eluted with 100% buffer B for the […] and with 100% buffer A for an additional 15 min from 45 to 60 min. Absorbance at 260 nm was monitored with a LSA UV detector (Shimadzu), and radioactivity was monitored on-line with a Flo-One detector (Packard Instrument Co., Meridien, Conn.). [^3H]Nucleotides and [^3H]nucleosides were quantitated as previously described. Id. Confluent polarized cells were incubated for 20 min at 37° C. in the presence of 1 μM (0.2 μCi) of [3H]UTP, [^3H]UDP, or [^3H]UDP combined with 100 μM ATP. All additions were to the mucosal bath (300 μl final volume). Incubations were terminated by transferring the mucosal medium to an Eppendorf tube containing 30 μl 50 mM EDTA, followed by boiling. [^3H]Species were separated by HPLC as indicated in Example 6. Hydrolysis of both [^3H]UTP and [^3H]UDP on the surface of human nasal epithelial cells was determined on both cell surfaces by the following procedures: primary cultures of HNE cells were grown to confluence on 6.5 mm Transwells as a polarized epithelium. The cells were washed twice with pre-warmed DMEM-HEPES medium (pH 7.4), and were pre-incubated for 1 hour at 37° C with 0.5 mL of medium added on each side. Incubations were initiated by the addition 50 μl of 10 μM (0.5 μCi) [^3H]UTP or [^3H]UDP on the indicated cell surface. Medium samples were collected during a 20 min incubation period and analyzed by HPLC as described in Example 6. The values represent the mean (±range from the mean) from two experiments performed with duplicate samples.

[5] = as above; assay type: in vitro ADME; settings: human, pH 7.4; mucosal, time course; read-out: Half life (t½)
Protocol: as §3

EC50 (human P2Y6 receptor): 0.5 µM
SMILES: Cc1cn([C@@H]2O[C@H](COP(=O)(O)OP(=O)(O)O)[C@@H](O)[C@H]2O)c(=O)[nH]c1=O [Compound A, 5-Methyluridine 5′-diphosphate]

EC50 (human P2Y6 receptor): 4.7 µM
SMILES: COc1ccn([C@@H]2O[C@H](COP(=O)(O)OP(=O)(O)O)[C@@H](O)[C@H]2O)c(=O)n1 [Compound D, 4-Methoxyuridine 5′-diphosphate]

EC50 (human P2Y6 receptor): 25.5 µM
SMILES: CCCCCCNc1ccn([C@@H]2O[C@H](COP(=O)(O)OP(=O)(O)O)[C@@H](O)[C@H]2O)c(=O)n1 [Compound E, N-hexylcytidine 5′-diphosphate]

EC50 (human P2Y6 receptor): 55.1 µM
SMILES: O=c1nc(N2CCOCC2)ccn1[C@@H]1O[C@H](COP(=O)(O)OP(=O)(O)O)[C@@H](O)[C@H]1O [Compound F, 4-(N-morpholino)uridine 5′-diphosphate]

EC50 (human P2Y6 receptor): 0.02 µM
SMILES: O=c1[nH]c(=O)n([C@@H]2O[C@H](COP(=O)(O)OP(=O)(O)O)[C@@H](O)[C@H]2O)cc1C#Cc1ccccc1 [Compound G, 5-(Phenylethynyl)uridine 5′-diphosphate]

EC50 (human P2Y6 receptor): 2.1 µM
SMILES: O=c1ccn([C@@H]2O[C@H](COP(=O)(O)OP(=O)(O)O)C[C@H]2O)c(=O)[nH]1 [Compound H, 3′-Deoxyuridine 5′-diphosphate]

EC50 (human P2Y6 receptor): 1.8 µM
SMILES: CCCCCCSc1ccn([C@@H]2O[C@H](COP(=O)(O)OP(=O)(O)O)[C@@H](O)[C@H]2O)c(=O)n1 [Compound J, 4-Hexylthiouridine 5′-diphosphate]

Hydrolysis ([4]; 1 μM, 20 min, mucosal surface, 37° C.): 73±16%
Nucleotide Hydrolysis MUCOSAL ([4]; mucosal surface): 17 ± 22
Nucleotide Hydrolysis SEROSAL [4]: 98 ± 11
half-life [5]: 14 ± 2 min
SMILES: O=c1ccn([C@@H]2O[C@H](COP(=O)(O)OP(=O)(O)OP(=O)(O)O)[C@@H](O)[C@H]2O)c(=O)[nH]1 [[^3H]UTP]

The remaining lines, values behind:

SMILES: Nc1ncnc2c1ncn2[C@@H]1O[C@H](COP(=O)(O)OP(=O)(O)OP(=O)(O)O)[C@@H](O)[C@H]1O [ATP, reference compound]
Responses following multiple additions of UDP ([1]; after multiple additions of UDP): retained

SMILES: CCCCCCOc1ccn([C@@H]2O[C@H](COP(=O)(O)OP(=O)(O)O)[C@@H](O)[C@H]2O)c(=O)n1 [Compound B, 4-Hexyloxyuridine 5′-diphosphate]
EC50 (human P2Y6 receptor): 3 µM

SMILES: CN(C)c1ccn([C@@H]2O[C@H](COP(=O)(O)OP(=O)(O)O)[C@@H](O)[C@H]2O)c(=O)n1 [Compound C, N,N-dimethylcytidine 5′-diphosphate]
EC50 (human P2Y6 receptor): 41.7 µM

SMILES: O=c1nc(NC2CCCC2)ccn1[C@@H]1O[C@H](COP(=O)(O)OP(=O)(O)O)[C@@H](O)[C@H]1O [Compound I, N-Cyclopentylcytidine 5′-diphosphate]
EC50 (human P2Y6 receptor): 8.6 µM

SMILES: O=c1ccn([C@@H]2O[C@H](COP(=O)(O)OP(=O)(O)OP(=O)(O)O)[C@@H](O)[C@H]2O)c(=O)[nH]1 [UTP, uridine 5′-triphosphate, reference compound]
EC50 [2]: 280 ± 35 nM
Cl- secretory response (ΔICl-), mucosal bath ([3]; 100 μM, mucosal): 74±11 μA/cm^2
Cl- secretory response (ΔICl-), serosal bath ([3]; 100 μM, serosal): 34±3 μA/cm^2
ΔCl-, UDP-treated cells ([3]; UDP-treated cells, n=8, the values are: ΔICl- (Cl- secretory current)): -61 ± 10 µA/cm²
ΔICl-, control cells ([3]; control cells, n=12): −74±11 μA/cm^2
ΔCa2+, UDP-treated cells ([1]; UDP-treated cells, n=8): 310 ± 35 nM
ΔCa2+, control cells ([1]; control cells, n=19): 374 ± 24 nM
Hydrolysis rate of mucosal UTP relative to mucosal UDP ([4]; mucosal): 2-3 fold

SMILES: O=c1ccn([C@@H]2O[C@H](COP(=O)(O)OP(=O)(O)O)[C@@H](O)[C@H]2O)c(=O)[nH]1 [[^3H]UDP]
Nucleotide Hydrolysis MUCOSAL ([4]; mucosal surface): 87 ± 6
Nucleotide Hydrolysis SEROSAL [4]: 70 ± 9
half-life [5]: 27 ± 3 min
